Assay results reported in ChEMBL document CHEMBL3351559, “Spectroscopic investigations of the binding mechanisms between antimicrobial peptides and membrane models of Pseudomonas aeruginosa and Klebsiella pneumoniae” (2014).
In brackets after ≈: the same amount, converted by molar mass. Activity calls are given as the source filed them. The calls are words filed in the database; no cut-off is given here. *1 amine or outer side, *2 acyl side, *3 side chain or, on linkers, in order; H or OH if unused. Where a SMILES comes first, the peptide text is derived from it. [ ]: non-standard residue; d: D form. ξ: configuration not given here. Phe(4-NO2) = N[C@@H](Cc1ccc([N+](=O)[O-])cc1)C(=O)O; Pro(3ξ,4ξ-(CH2)4) = O=C(O)[C@H]1NCC2CCCCC21; X1 = O=C([C@H]1C2CCCCC2CN1[*:1])[*:2]; Tic = O=C(O)[C@@H]1Cc2ccccc2CN1; dTic = O=C(O)[C@H]1Cc2ccccc2CN1; dOrn = NCCC[C@@H](N)C(=O)O; Dab = NCC[C@H](N)C(=O)O; βAla = NCCC(=O)O

Experiments:
Klebsiella pneumoniae = assay: Antimicrobial activity against Klebsiella pneumoniae BAMC 07-18; type: functional; conditions: for MIC: Klebsiella pneumoniae, BAMC 07-18
Lipopolysaccharide (LPS) [1] = assay: Binding affinity to SUV consisting Pseudomonas aeruginosa lipopolysaccharide by CD spectroscopy
Lipopolysaccharide (LPS) [2] = assay: Binding affinity to Klebsiella pneumoniae lipopolysaccharide incorporated into 75% POPC/20% POPE/5% POPG liposomes by Far-UV circular dichroism spectroscopy; conditions: Liposome
Pseudomonas aeruginosa = assay: Antimicrobial activity against Pseudomonas aeruginosa PAO1; type: functional; conditions: for MIC: Pseudomonas aeruginosa, PAO1
Lipopolysaccharide (LPS) [3] = assay: Binding affinity to Pseudomonas aeruginosa lipopolysaccharide incorporated into 59% POPC/20% POPE/21% POPG by Far-UV circular dichroism spectroscopy
Lipopolysaccharide (LPS) [4] = assay: Binding affinity to Klebsiella pneumoniae lipopolysaccharide incorporated into phospholipid 75% POPC/20% POPE/5% POPG liposomes by Far-UV circular dichroism spectroscopy
Lipopolysaccharide (LPS) [5] = assay: Binding affinity to Pseudomonas aeruginosa lipopolysaccharide at 0.1 mg by [1H] NMR spectroscopy
Lipopolysaccharide (LPS) [6] = assay: Binding affinity to Pseudomonas aeruginosa lipopolysaccharide incorporated into 59% POPC/20% POPE/21% POPG liposomes by Far-UV circular dichroism spectroscopy; conditions: Liposome
Lipopolysaccharide (LPS) [7] = assay: Binding affinity to Klebsiella pneumoniae lipopolysaccharide at 0.1 mg by [1H] NMR spectroscopy
Lipopolysaccharide (LPS) [8] = assay: Binding affinity to SUV consisting Klebsiella pneumoniae lipopolysaccharide by CD spectroscopy
Lipopolysaccharide (LPS) [9] = assay: Binding affinity to Pseudomonas aeruginosa lipopolysaccharide assessed as normalized peak area of proton resonances in region of 1.5 to 0.5 ppm by […] relative to untreated control
Lipopolysaccharide (LPS) [10] = assay: Binding affinity to Pseudomonas aeruginosa lipopolysaccharide incorporated into 80% POPC/20% POPG by Far-UV circular dichroism spectroscopy
Lipopolysaccharide (LPS) [11] = assay: Binding affinity to Klebsiella pneumoniae lipopolysaccharide incorporated 75% POPC/20% POPE/5% POPG liposome by Far-UV circular dichroism spectroscopy
Lipopolysaccharide (LPS) [12] = assay: Binding affinity to Klebsiella pneumoniae lipopolysaccharide assessed as normalized peak area of proton resonances in region of 1.5 to 0.5 ppm by […] relative to untreated control

MIC (Klebsiella pneumoniae) [µM]	Activity (Lipopolysaccharide (LPS) [1])	Activity (Lipopolysaccharide (LPS) [2])	MIC (Pseudomonas aeruginosa) [µM]	Activity (Lipopolysaccharide (LPS) [3])	Activity (Lipopolysaccharide (LPS) [4])	Activity (Lipopolysaccharide (LPS) [5])	Activity (Lipopolysaccharide (LPS) [6])	Activity (Lipopolysaccharide (LPS) [7])	Activity (Lipopolysaccharide (LPS) [8])	Activity (Lipopolysaccharide (LPS) [9]) [%]	Activity (Lipopolysaccharide (LPS) [10])	Activity (Lipopolysaccharide (LPS) [11])	Activity (Lipopolysaccharide (LPS) [12]) [%]	Structure (SMILES)	MBC (Klebsiella pneumoniae) [µM]	MBC (Pseudomonas aeruginosa) [µM]
19.1 (≈ 49.8 µg/mL)	Active	Active	38.4 (≈ 100 µg/mL)	Active	Active	Active	Active	Active	Active	39	Active	Active	81	CC(=O)NCC(=O)N[C@@H](Cc1ccccc1)C(=O)N1Cc2ccccc2C[C@H]1C(=O)N1CC2CCCCC2[C@H]1C(=O)NCC(=O)N[C@@H](CCCNC(=N)N)C(=O)N1Cc2ccccc2C[C@H]1C(=O)N1CC2CCCCC2[C@H]1C(=O)NCC(=O)N[C@@H](Cc1ccccc1)C(=O)N1Cc2ccccc2C[C@H]1C(=O)N1CC2CCCCC2[C@H]1C(=O)NCC(=O)N[C@@H](CCCNC(=N)N)C(=O)N1Cc2ccccc2C[C@H]1C(=O)N[C@@H](CCCNC(=N)N)C(=O)N[C@@H](CCCNC(=N)N)C(=O)N[C@@H](CCCNC(=N)N)C(=O)N[C@@H](CCCNC(=N)N)C(N)=O (stereo partly drawn) (Ac-GF[Tic][Pro(3ξ,4ξ-(CH2)4)]GR[Tic][Pro(3ξ,4ξ-(CH2)4)]GF[Tic][Pro(3ξ,4ξ-(CH2)4)]GR[Tic]RRRR-NH2)	38.4 (≈ 100 µg/mL)	> 100
5.5 (≈ 12.5 µg/mL)	Active	Active	5.5 (≈ 12.5 µg/mL)	Active	Active	Active	Active	Active	Active	29	Active	Active	89	CC(=O)NCC(=O)N[C@@H](Cc1ccccc1)C(=O)N1Cc2ccccc2C[C@H]1C(=O)N1CC2CCCCC2[C@H]1C(=O)NCC(=O)N[C@@H](CCN)C(=O)N1Cc2ccccc2C[C@H]1C(=O)N1CC2CCCCC2[C@H]1C(=O)NCC(=O)N[C@@H](Cc1ccccc1)C(=O)N1Cc2ccccc2C[C@H]1C(=O)N1CC2CCCCC2[C@H]1C(=O)NCC(=O)N[C@@H](CCN)C(=O)N1Cc2ccccc2C[C@H]1C(=O)N[C@@H](CCN)C(=O)N[C@@H](CCN)C(=O)N[C@@H](CCN)C(=O)N[C@@H](CCN)C(N)=O (stereo partly drawn) (Ac-GF[Tic][Pro(3ξ,4ξ-(CH2)4)]G[Dab][Tic][Pro(3ξ,4ξ-(CH2)4)]GF[Tic][Pro(3ξ,4ξ-(CH2)4)]G[Dab][Tic][Dab][Dab][Dab][Dab]-NH2)	5.5 (≈ 12.5 µg/mL)	11 (≈ 25 µg/mL)
21 (≈ 49.5 µg/mL)	Active	Active	21 (≈ 49.5 µg/mL)	Active	Active	Active	Active	Active	Active	36	Active	Active	93	CC(=O)NCC(=O)N[C@@H](Cc1ccccc1)C(=O)N1Cc2ccccc2C[C@H]1C(=O)N1CC2CCCCC2[C@@H]1C(=O)NCC(=O)N[C@H](CCCN)C(=O)N1Cc2ccccc2C[C@@H]1C(=O)N1CC2CCCCC2[C@H]1C(=O)NCC(=O)N[C@H](Cc1ccccc1)C(=O)N1Cc2ccccc2C[C@@H]1C(=O)N1CC2CCCCC2[C@@H]1C(=O)NCC(=O)N[C@H](CCCN)C(=O)N1Cc2ccccc2C[C@@H]1C(=O)N[C@H](CCCN)C(=O)N[C@H](CCCN)C(=O)N[C@H](CCCN)C(=O)N[C@H](CCCN)C(N)=O (stereo partly drawn) (Ac-GF[Tic][X1]G[dOrn][dTic][Pro(3ξ,4ξ-(CH2)4)]G[dF][dTic][X1]G[dOrn][dTic][dOrn][dOrn][dOrn][dOrn]-NH2)	21 (≈ 49.5 µg/mL)	21 (≈ 49.5 µg/mL)
19.6 (≈ 49.6 µg/mL)	Active	Active	19.6 (≈ 49.6 µg/mL)	Active	Active	–	Active	–	Active	–	Active	Active	–	CC(=O)NCC(=O)N[C@@H](Cc1ccc([N+](=O)[O-])cc1)C(=O)N1Cc2ccccc2C[C@H]1C(=O)N1CC2CCCCC2[C@H]1C(=O)NCC(=O)N[C@@H](CCCCN)C(=O)N1Cc2ccccc2C[C@H]1C(=O)N1CC2CCCCC2[C@H]1C(=O)NCC(=O)N[C@@H](Cc1ccc([N+](=O)[O-])cc1)C(=O)N1Cc2ccccc2C[C@H]1C(=O)N1CC2CCCCC2[C@H]1C(=O)NCC(=O)N[C@@H](CCCCN)C(=O)N1Cc2ccccc2C[C@H]1C(=O)N[C@@H](CCCCN)C(=O)N[C@@H](CCCCN)C(=O)N[C@@H](CCCCN)C(=O)N[C@@H](CCCCN)C(N)=O (stereo partly drawn) (Ac-G[Phe(4-NO2)][Tic][Pro(3ξ,4ξ-(CH2)4)]GK[Tic][Pro(3ξ,4ξ-(CH2)4)]G[Phe(4-NO2)][Tic][Pro(3ξ,4ξ-(CH2)4)]GK[Tic]KKKK-NH2)	19.6 (≈ 49.6 µg/mL)	39.1 (≈ 99 µg/mL)
40 (≈ 99.9 µg/mL)	Active	Active	40 (≈ 99.9 µg/mL)	Active	Active	–	Active	–	Active	–	Active	Active	–	CC(=O)NCCC(=O)N[C@@H](Cc1ccccc1)C(=O)N1Cc2ccccc2C[C@H]1C(=O)N1CC2CCCCC2[C@H]1C(=O)NCCC(=O)N[C@@H](CCCCN)C(=O)N1Cc2ccccc2C[C@H]1C(=O)N1CC2CCCCC2[C@H]1C(=O)NCCC(=O)N[C@@H](Cc1ccccc1)C(=O)N1Cc2ccccc2C[C@H]1C(=O)N1CC2CCCCC2[C@H]1C(=O)NCCC(=O)N[C@@H](CCCCN)C(=O)N1Cc2ccccc2C[C@H]1C(=O)N[C@@H](CCCCN)C(=O)N[C@@H](CCCCN)C(=O)N[C@@H](CCCCN)C(=O)N[C@@H](CCCCN)C(N)=O (stereo partly drawn) (Ac-[βAla]F[Tic][Pro(3ξ,4ξ-(CH2)4)][βAla]K[Tic][Pro(3ξ,4ξ-(CH2)4)][βAla]F[Tic][Pro(3ξ,4ξ-(CH2)4)][βAla]K[Tic]KKKK-NH2)	40 (≈ 99.9 µg/mL)	40 (≈ 99.9 µg/mL)
40 (≈ 97.6 µg/mL)	Active	Active	40 (≈ 97.6 µg/mL)	Active	Active	Active	Active	Active	Active	33	Active	Active	81	CC(=O)NCC(=O)N[C@@H](Cc1ccccc1)C(=O)N1Cc2ccccc2C[C@H]1C(=O)N1CC2CCCCC2[C@H]1C(=O)NCC(=O)N[C@@H](CCCCN)C(=O)N1Cc2ccccc2C[C@H]1C(=O)N1CC2CCCCC2[C@H]1C(=O)NCC(=O)N[C@@H](Cc1ccccc1)C(=O)N1Cc2ccccc2C[C@H]1C(=O)N1CC2CCCCC2[C@H]1C(=O)NCC(=O)N[C@@H](CCCCN)C(=O)N1Cc2ccccc2C[C@H]1C(=O)N[C@@H](CCCCN)C(=O)N[C@@H](CCCCN)C(=O)N[C@@H](CCCCN)C(=O)N[C@@H](CCCCN)C(N)=O (stereo partly drawn) (Ac-GF[Tic][Pro(3ξ,4ξ-(CH2)4)]GK[Tic][Pro(3ξ,4ξ-(CH2)4)]GF[Tic][Pro(3ξ,4ξ-(CH2)4)]GK[Tic]KKKK-NH2)	40 (≈ 97.6 µg/mL)	40 (≈ 97.6 µg/mL)
